Test results: paper PMC11648915, “Identification and development of TRPM4 antagonists to counteract neuronal excitotoxicity” (iScience, 2024)
Each block holds one compound with its values, some of them ahead of it.

Key:
human TRPM5 = biological target: T1, human TRPM5 (Homo sapiens, UniProt Q9NZQ8); assay: QPatch automated patch clamp on TRPM5-expressing HEK293 cells; type: cell-based; settings: hsTRPM5-expressing HEK293 cells
T1 sequence (Q9NZQ8 1-1165): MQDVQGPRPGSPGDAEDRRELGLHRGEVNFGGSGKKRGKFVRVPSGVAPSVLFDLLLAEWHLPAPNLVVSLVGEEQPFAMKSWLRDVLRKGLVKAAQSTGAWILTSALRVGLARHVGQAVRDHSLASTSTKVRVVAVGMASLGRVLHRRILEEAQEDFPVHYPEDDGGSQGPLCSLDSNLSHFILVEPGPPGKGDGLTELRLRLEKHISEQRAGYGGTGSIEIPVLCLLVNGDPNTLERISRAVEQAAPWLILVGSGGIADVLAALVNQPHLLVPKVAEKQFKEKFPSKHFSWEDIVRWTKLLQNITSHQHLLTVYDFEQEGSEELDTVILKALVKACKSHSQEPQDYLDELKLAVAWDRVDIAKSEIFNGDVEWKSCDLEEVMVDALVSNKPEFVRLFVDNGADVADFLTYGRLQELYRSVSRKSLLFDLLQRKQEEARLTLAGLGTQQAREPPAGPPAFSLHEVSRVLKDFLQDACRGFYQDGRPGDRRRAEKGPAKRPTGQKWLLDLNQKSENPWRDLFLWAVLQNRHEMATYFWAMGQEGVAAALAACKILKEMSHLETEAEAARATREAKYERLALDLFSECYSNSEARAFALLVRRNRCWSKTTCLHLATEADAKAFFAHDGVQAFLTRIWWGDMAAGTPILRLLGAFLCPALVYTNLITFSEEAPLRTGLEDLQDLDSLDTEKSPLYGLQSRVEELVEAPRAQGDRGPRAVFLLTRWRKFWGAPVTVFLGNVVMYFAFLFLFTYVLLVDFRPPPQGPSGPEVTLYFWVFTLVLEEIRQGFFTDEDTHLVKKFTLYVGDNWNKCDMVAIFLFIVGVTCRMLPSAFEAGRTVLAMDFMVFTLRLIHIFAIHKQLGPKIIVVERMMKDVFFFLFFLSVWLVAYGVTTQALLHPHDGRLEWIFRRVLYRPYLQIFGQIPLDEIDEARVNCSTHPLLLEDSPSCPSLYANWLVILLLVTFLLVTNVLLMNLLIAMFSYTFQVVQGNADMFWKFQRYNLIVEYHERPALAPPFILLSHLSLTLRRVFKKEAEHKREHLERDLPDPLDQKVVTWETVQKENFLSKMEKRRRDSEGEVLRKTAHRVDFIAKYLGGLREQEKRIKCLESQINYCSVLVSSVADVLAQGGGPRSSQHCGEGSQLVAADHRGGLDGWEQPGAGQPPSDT
Source text: The counter screening phase involved the inclusion of hsTRPM5-expressing HEK293 cells, as closest homologue, and the parental HEK293 cell line to evaluate selectivity. […] Based on categorization of biological activity, mass spectrometry quality control, and aspects of medicinal chemistry, we prioritized 144 selective hsTRPM4 compounds. These compounds were then subjected to automated patch clamp electrophysiology measurements (QPatch[58]) to evaluate their activity profiles and IC50 values (Figures 1A, S1, and S2).
(§1) QPatchHTX, an automated electrophysiology platform, was used in single hole mode. One day before use human TRPM4- or TRPM5-expressing HEK293 cells were seeded in a T75 flask at a density of 53k cells per cm^2 and at passages < 23. For QPatch assays, cells were harvested and re-suspended in SFM (Gibco, 11686029). The extracellular solution was (in mM): CaCl2 (7), MgCl2 (2), KCl (5), HEPES (10), NaCl (70), NMDG (70); pH 7.4 with NaOH. The intracellular solution was (in mM): HEPES (10), NMDG (100), NaCl (50), EGTA (20), MgCl2 (1), CaCl2 (21); pH 7.2 with HCl. After break-in, channels were consistently open and current through the channels could be observed at a voltage ramp from –100 mV to +100 mV over 500 ms. This protocol was repeated every 7 seconds. After saline and vehicle application, the channel was desensitized and residual current was used as baseline. FFA was used as reference compound and applied cumulatively with each concentration incubating at a minimum of 20 voltage protocol runs (140 seconds) with the current after addition of FFA being calculated as full block. […] Each compound was measured at least 3 time independently.

human TRPM4 = human TRPM4 (Homo sapiens, UniProt Q8TD43); assay: QPatch automated patch clamp on TRPM4-expressing HEK293 cells; type: cell-based; settings: hsTRPM4-expressing HEK293 cells; for EC50: read-out: TRPM4 EC50 (potentiator activity)
Protocol: as §1, with “For QPatch assays, cells were harvested and re-suspended in SFM (Gibco, 11686029).” left out, “After break-in, channels were consistently open and current through the channels could be observed at a voltage ramp from –100 mV to +100 mV over 500 ms.” left out, “After saline and vehicle application, the channel was desensitized and residual current was used as baseline.” left out

CYP2D6 = biological target: T2, CYP2D6 (Homo sapiens, UniProt P10635); assay: CYP inhibition assay 2D6; type: in vitro ADME
T2 construct: purchased BD Gentest
Protocol: The half-maximal inhibitory concentration (IC50) for cytochrome P450 (CYP) enzymes was determined using an in vitro enzyme inhibition assay. Recombinant CYP enzymes or human liver microsomes from BD Gentest, in 0.1 M phosphate buffer pH 7.4, containing native CYP enzymes were incubated with the test compound at various concentrations (1, 3, 10 and 30 μM) and containing 0.5% DMSO and 0.1% BSA final concentrations. 1 mM of NADPH cofactor was added and the reaction was started by a rapid increase of temperature until 37°C.

[1] = Microsome clearance (mouse); type: in vitro ADME; settings: mouse liver microsomes, 45 min, NADPH
Protocol: (§2) Human or mouse liver microsomes were incubated with the test compound at a concentration of 1 μM for 45 min in the presence of cofactor (NADPH in excess). Samples were collected at various time points, and % remaining of test compound was determined using mass spectrometry (LC-MS/MS) to calculate hepatic clearance rate (L/h/kg).

[2] = Microsome clearance (human); type: in vitro ADME; settings: human liver microsomes, 45 min, NADPH, read-out: Microsomes (h) clearance (converted)
Protocol: as §2

[3] = Parallel Artificial Membrane Permeability Assay (PAMPA); type: in vitro ADME; settings: PAMPA; pH not given; read-out: PAMPA perm.
Protocol: Parallel Artificial Membrane Permeability Assay (PAMPA) was performed using artificial lipid membrane layers to assess passive permeability of the test compound. Test compounds were diluted to 200 μM in system buffer at pH 5.0, 6.2 and 7.4. The solutions were filtered and 150 μL transferred to a High Sensitivity 96 well UV plate. This was analysed by UV as the reference plate. A 200 μL sample of the 200 μM solution was transferred to the ‘donor’ plate of the PAMPA pIon sandwich plate system. 200 μL of acceptor sink buffer was transferred to the ‘acceptor’ plate which had been previously treated with GIT-O lipid solution across the well filter. Donor and acceptor plates were sandwiched and kept in a humid environment at room temperature for 16 hours. On completion of the incubation the donor and acceptor plates were separated. 150 μL of solution was transferred from each of the donor and acceptor PAMPA sandwich plates into High Sensitivity 96 well UV plates for analysis by UV. at different time points. The concentration of the compound in the acceptor compartment was determined using mass spectrometry. The permeability coefficient (Papp) was calculated based on the rate of appearance of the compound in the acceptor compartment (nm/s).

[4] = Caco-2 permeability assay; type: in vitro ADME; settings: human, heading: Caco-2 perm., direction not given
Protocol: Caco-2 permeability was evaluated using a cell-based assay with Caco-2 cells cultured on permeable membrane inserts. The test compound was added at 10 μM to the apical (donor) compartment, and samples were collected from the basolateral (receiver) compartment at 120 min. The test compound was also added at 10 μM to the basolateral (donor) compartment, and samples were collected from the apical (receiver) compartment at 120 min. The amount of the compound in both compartments was measured using mass spectrometry (LC-MS/MS). The permeability coefficient (Papp, nm/s) apical to basolateral and basolateral to apical, and an efflux ratio were calculated.

human TRPM4, sequence (Q8TD43 whole entry): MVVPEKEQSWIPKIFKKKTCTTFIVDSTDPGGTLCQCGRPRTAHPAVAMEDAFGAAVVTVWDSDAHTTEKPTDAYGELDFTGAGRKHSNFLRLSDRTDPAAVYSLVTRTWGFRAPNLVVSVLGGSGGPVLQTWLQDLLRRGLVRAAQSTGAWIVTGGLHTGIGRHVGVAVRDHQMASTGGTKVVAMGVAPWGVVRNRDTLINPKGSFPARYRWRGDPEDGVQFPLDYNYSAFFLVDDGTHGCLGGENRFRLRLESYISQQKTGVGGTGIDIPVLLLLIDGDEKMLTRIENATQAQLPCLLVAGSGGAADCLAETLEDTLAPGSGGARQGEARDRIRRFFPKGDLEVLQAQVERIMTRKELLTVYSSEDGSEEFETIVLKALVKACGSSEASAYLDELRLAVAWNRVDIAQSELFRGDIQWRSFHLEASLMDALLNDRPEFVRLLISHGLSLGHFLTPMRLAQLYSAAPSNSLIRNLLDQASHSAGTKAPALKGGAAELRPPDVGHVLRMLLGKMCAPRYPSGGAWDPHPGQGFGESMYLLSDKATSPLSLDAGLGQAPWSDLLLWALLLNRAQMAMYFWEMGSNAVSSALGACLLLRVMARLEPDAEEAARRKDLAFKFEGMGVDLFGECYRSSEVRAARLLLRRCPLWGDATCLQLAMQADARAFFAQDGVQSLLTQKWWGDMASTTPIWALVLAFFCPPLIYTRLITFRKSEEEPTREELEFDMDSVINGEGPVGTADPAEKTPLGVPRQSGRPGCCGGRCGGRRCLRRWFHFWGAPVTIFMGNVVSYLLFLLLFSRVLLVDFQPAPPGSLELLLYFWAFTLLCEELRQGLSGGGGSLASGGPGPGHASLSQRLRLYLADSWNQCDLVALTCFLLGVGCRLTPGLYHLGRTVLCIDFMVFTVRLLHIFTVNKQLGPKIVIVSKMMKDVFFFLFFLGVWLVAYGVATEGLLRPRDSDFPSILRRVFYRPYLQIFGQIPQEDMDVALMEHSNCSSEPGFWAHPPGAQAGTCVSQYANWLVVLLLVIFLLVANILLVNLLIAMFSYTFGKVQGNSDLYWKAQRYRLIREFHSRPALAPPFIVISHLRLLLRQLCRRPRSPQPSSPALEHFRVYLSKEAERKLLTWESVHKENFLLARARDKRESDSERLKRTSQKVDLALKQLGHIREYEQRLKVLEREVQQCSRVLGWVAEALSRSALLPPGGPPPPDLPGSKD
T2 sequence (P10635 whole entry): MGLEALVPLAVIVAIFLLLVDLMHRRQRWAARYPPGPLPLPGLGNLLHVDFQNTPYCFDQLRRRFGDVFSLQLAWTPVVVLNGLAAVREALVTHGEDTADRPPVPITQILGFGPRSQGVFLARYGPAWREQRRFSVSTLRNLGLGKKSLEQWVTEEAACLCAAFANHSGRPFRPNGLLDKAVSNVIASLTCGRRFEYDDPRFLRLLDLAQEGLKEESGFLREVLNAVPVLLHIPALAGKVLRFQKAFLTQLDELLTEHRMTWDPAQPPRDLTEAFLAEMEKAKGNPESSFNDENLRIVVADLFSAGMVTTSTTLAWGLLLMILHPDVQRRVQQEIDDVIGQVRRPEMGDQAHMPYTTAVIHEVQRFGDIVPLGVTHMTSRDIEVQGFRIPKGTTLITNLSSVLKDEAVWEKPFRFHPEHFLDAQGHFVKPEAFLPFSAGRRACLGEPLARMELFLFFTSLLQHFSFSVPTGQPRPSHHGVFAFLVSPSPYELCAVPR

IC50 (human TRPM5): > 30 µM
SMILES: O=C(CCc1ccccc1)Nc1ccc(C(F)(F)F)cc1C(=O)O [CMP502]
IC50 (human TRPM4): 600 nM

IC50 (CYP2D6): > 50 µM
IC50 (human TRPM5): > 30 µM
CLint scaled at 1 μM [1]: 900 mL/min/kg
CLint scaled at 1 μM [2]: 225 mL/min/kg
Papp at 16 h, 200 μM [3]: 22 ×10⁻⁶ cm/s
SMILES: CNc1ccc(-c2ccccc2NCc2nc3ccccc3o2)cc1 [CMP470]

SMILES: c1ccc(-c2ccccc2NCc2nc3ccccc3o2)cc1 [CMP009]
IC50 (human TRPM4): 550 nM

SMILES: c1ccc(CSCc2cn3ccsc3n2)cc1 [CMP133]
IC50 (human TRPM4): 280 nM

SMILES: Nc1nnc(Cc2cccc(Br)c2)s1 [CMP225]
EC50 (human TRPM4): 1340 nM

SMILES: COc1ccccc1-c1ccccc1NCc1nc2ccccc2o1 [CMP320]
IC50 (human TRPM4): 820 nM

SMILES: Oc1ccccc1NCc1nc2ccccc2o1 [CMP311]
EC50 (human TRPM4): 3240 nM

IC50 (CYP2D6): > 50 µM
IC50 (human TRPM5): > 30 µM
CLint scaled at 1 μM [1]: 393 mL/min/kg
Papp at 120 min, 10 μM [4]: 189 nm/s
CLint scaled at 1 μM [2]: 216 mL/min/kg
Papp at 16 h, 200 μM [3]: 37.9 ×10⁻⁶ cm/s
SMILES: Nc1cccc(-c2ccccc2NCc2nc3ccccc3o2)c1 [CMP465]

IC50 (human TRPM5): 19 µM
SMILES: O=C(CCc1ccccc1Cl)Nc1ccc(Br)cc1C(=O)O [CMP510]
IC50 (human TRPM4): 720 nM
